One data set concerns pathogens. The following applies: cited from earlier work.
A further data set concerns Cotesia marginiventris. The experiment in a line: Four-arm olfactometer assay with parasitoid females. Format: in vivo. The following applies: odor vs pure air. The protocol:
FIG. 9 provides evidence that the parasitic wasp Cotesia marginiventris is attracted by (E)-β-caryophyllene after previous oviposition experience. Responses of the parasitic wasp Cotesia marginiventris to (E)-β-caryophyllene: The attraction of parasitoid females to a pure standard of (E)-β-caryophyllene was tested in a four-arm olfactometer. Two groups of parasitoids were tested: naïve wasps and wasps with a previous oviposition experience on host larvae in the presence of (E)-β-caryophyllene. The parasitoids were tested in groups of six (n=14).
9. […] On the next day, recovered nematodes were counted. • To test the above ground role of (E)-β-caryophyllene in attracting herbivore enemies, S. littoralis caterpillars and the solitary endoparasitoid Cotesia marginiventris were reared as described by Turlings et al. (2004). […] The experiment was repeated seven times. • The behavioral responses of parasitoids and entomopathogenic nematodes to (E)-β-caryophyllene were analyzed with a log-linear model corrected for the expected distribution within the olfactometer (Turlings et al. 2004). The model was fitted by maximum quasilikelihood estimation in the software package R (Version 2.4.0) and its adequacy was assessed through likelihood ratio statistics and examination of residuals. […]

A further data set concerns Heterorhabditis megidis. The experiment in a line: Belowground six-arm olfactometer assay. Format: in vivo. The protocol: 9. Bioassays • Attraction of the nematode Heterorhabditis megidis toward (E)-β-caryophyllene was tested with belowground six-arm olfactometer assays (Rasmann et al., 2005). The apparatus consisted of a central glass chamber with six evenly distributed side arms that connect it to six glass pots. The entire system was filled with moist sand (10% water). An aliquot of 0.2 μl of authentic (E)-β-caryophyllene (98% pure; Sigma-Aldrich) was injected into one of the glass pots and the five untreated pots were used as controls. About 2000 H. megidis were released in a drop of water in the centre of the central arena. […] On the next day, recovered nematodes were counted. • To test the above ground role of (E)-β-caryophyllene in attracting herbivore enemies, S. littoralis caterpillars and the solitary endoparasitoid Cotesia marginiventris were reared as described by Turlings et al. (2004). […] The experiment was repeated seven times. • The behavioral responses of parasitoids and entomopathogenic nematodes to (E)-β-caryophyllene were analyzed with a log-linear model corrected for the expected distribution within the olfactometer (Turlings et al. 2004). The model was fitted by maximum quasilikelihood estimation in the software package R (Version 2.4.0) and its adequacy was assessed through likelihood ratio statistics and examination of residuals. […]

Data set [1] relates to adult females of D. v. virgifera. As to conditions: in vivo; cited from earlier work.
Data set [2] deals with T1, TPS23-Del (Zea mays, UniProt B2C4D0).
T1 sequence (B2C4D0 1-547): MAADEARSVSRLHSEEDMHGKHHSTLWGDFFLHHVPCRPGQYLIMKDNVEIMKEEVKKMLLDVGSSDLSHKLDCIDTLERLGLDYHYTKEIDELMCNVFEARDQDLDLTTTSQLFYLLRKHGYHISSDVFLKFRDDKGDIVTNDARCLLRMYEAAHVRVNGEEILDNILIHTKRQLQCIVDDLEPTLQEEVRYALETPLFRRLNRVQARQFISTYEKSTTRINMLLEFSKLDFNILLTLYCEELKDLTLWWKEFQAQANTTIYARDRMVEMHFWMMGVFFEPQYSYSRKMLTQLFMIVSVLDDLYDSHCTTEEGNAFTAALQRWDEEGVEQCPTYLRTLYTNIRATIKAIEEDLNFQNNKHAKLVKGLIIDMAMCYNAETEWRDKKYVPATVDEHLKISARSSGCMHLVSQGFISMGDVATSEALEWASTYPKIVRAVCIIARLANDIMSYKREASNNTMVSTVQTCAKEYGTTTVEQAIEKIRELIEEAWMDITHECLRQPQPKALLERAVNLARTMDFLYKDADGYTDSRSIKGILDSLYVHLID
The experiment in a line: Kinetic and metal ion cofactor assay with purified TPS23 and tritium-labeled FPP.

Data set [3] deals with T1, TPS23-Del. The experiment in a line: Substrate specificity and product identification of recombinant TPS23 (SPME, GC-MS). Set-up: For expression with a N-terminal 8×His tag the ORF of tps23 was amplified; 8xHis (N); made in house; host or cells: E. coli BL21 (DE3), vector pHIS8-3. Format: biochemical, maize (Zea mays L.). The following applies: recombinant His-tagged TPS23-Del from E. coli BL21 (DE3).

For data set [4] the following is noted: stored at −80° C.
Substrate in data set [5]: CC(C)=CCC/C(C)=C/CC/C(C)=C/CO[P@@](=O)(O)OP(=O)(O)O
The experiment in a line: purified protein, by the assay type. The following applies: other: FPP as substrate, TPS23-Del heterologously expressed in E. coli.

Setting [6] is: read-out: Km of divalent metal ion cofactor, TPS23-Del heterologously expressed in E. coli.

“Also recorded” adds a separate entry of the source. Like-named read-outs stand apart in the source and are kept apart here.

In the case of `C=C1CC/C=C(\C)CC[C@@H]2[C@@H]1CC2(C)C` [(E)-β-caryophyllene], in the data set with pathogens, the anti-microbial activity result is recorded as “has anti-microbial activity”. Moreover, the “attraction of experienced wasps” value in the data set with Cotesia marginiventris (females with previous oviposition experience on host larvae in the presence of (E)-β-caryophyllene) is “significant preference; also recorded: preferred air carrying (E)-β-caryophyllene to pure air”. In addition, in the data set on Cotesia marginiventris (females without oviposition experience), the “attraction of naïve wasps” value was “did not show this preference; also recorded: not attracted”. In the data set on Heterorhabditis megidis (0.2 μl injected into one pot, 24 h after release of about 2000 H. megidis), the “nematodes recovered from spiked arm compared to average of the five arms not spiked” value is recorded as “Approximately twice”. Moreover, the attraction of nematodes entry with Heterorhabditis megidis (six-arm olfactometer filled with moist sand, spiked arm vs five control arms) was “significantly larger number; also recorded: attracts”. Moreover, in data set [1], the “attractiveness to adult females of D. v. virgifera” value is “reported attractiveness”.

With `CC(C)=CCC/C(C)=C/CC/C(C)=C/CO[P@@](=O)(O)OP(=O)(O)O` [FPP, (E,E)-farnesyl diphosphate], on TPS23-Del [2] (read-out: Km value for FPP, purified enzyme, tritium-labeled FPP), the Km was 2.4 ± 0.4 µM.

Take `CC(C)=CCC/C(C)=C/CC/C(C)=C/CC/C(C)=C/COP(=O)(O)OP(=O)(O)O` [GGPP, geranylgeranyl diphosphate]: at TPS23-Del [3], the acceptance as substrate result is recorded as “does not accept; also recorded: did not accept”.

As for `CC(C)=CCC/C(C)=C/COP(=O)(O)OP(=O)(O)O` [GPP, geranyl diphosphate], the acceptance as substrate result at TPS23-Del [3] is “does not accept; also recorded: did not accept”.

Regarding `[Mg+2]` [Mg^2+], the “enzyme activity with divalent cation” value at TPS23-Del [2] (10 mM) is listed as “substantial activities”. Besides, the Km on TPS23-Del [2] (setting [6]) was 183 ± 34 µM.

Consider `[Mn+2]` [Mn^2+], for which the “enzyme activity with divalent cation” value at TPS23-Del [2] (0.25 mM) is given as “substantial activities”. Moreover, the Km on TPS23-Del [2] (setting [6]) was determined as 28 ± 6 µM.

On to `CN1CCCCC1CCN1c2ccccc2Sc2ccc([S+](C)[O-])cc21` (stereo not shown) [TPS23-Del], for which the “time enzyme activity was stable” value in data set [4] is reported as “at least 1 month”.

B1: TPS23-Del (Zea mays) (protein)
chain: MAADEARSVSRLHSEEDMHGKHHSTLWGDFFLHHVPCRPGQYLIMKDNVEIMKEEVKKMLLDVGSSDLSHKLDCIDTLERLGLDYHYTKEIDELMCNVFEARDQDLDLTTTSQLFYLLRKHGYHISSDVFLKFRDDKGDIVTNDARCLLRMYEAAHVRVNGEEILDNILIHTKRQLQCIVDDLEPTLQEEVRYALETPLFRRLNRVQARQFISTYEKSTTRINMLLEFSKLDFNILLTLYCEELKDLTLWWKEFQAQANTTIYARDRMVEMHFWMMGVFFEPQYSYSRKMLTQLFMIVSVLDDLYDSHCTTEEGNAFTAALQRWDEEGVEQCPTYLRTLYTNIRATIKAIEEDLNFQNNKHAKLVKGLIIDMAMCYNAETEWRDKKYVPATVDEHLKISARSSGCMHLVSQGFISMGDVATSEALEWASTYPKIVRAVCIIARLANDIMSYKREASNNTMVSTVQTCAKEYGTTTVEQAIEKIRELIEEAWMDITHECLRQPQPKALLERAVNLARTMDFLYKDADGYTDSRSIKGILDSLYVHLID
As for B1, the Km in data set [5] (0.25 mM MnCl2) stood at 1.1 ± 0.3 µM; in data set [5] (10 mM MgCl2) it was 3.7 ± 0.5 µM.

Broadly, the Km is the concentration of substrate that gives half-maximal velocity.

The values above are taken from patent US20090313718A1, “POLYNUCLEOTIDES ENCODING CARYOPHYLLENE SYNTHASE AND USES THEREOF” (priority 2006, published 2009).
